Source: publication doi:10.1101/2024.06.10.598330v1 (biorxiv, 2024)

Assays:
[1] = test system: 'Concord' ortholog of 4g02123; assay: MTase-Glo luminescence methyltransferase assay; type: biochemical, Vitis labrusca; settings: 20 μM SAM, pH 8.0, 37 °C
Vv4g02123 = settings: 20 μM SAM, pH 8.0, 37 °C; substrate inhibition fit
Vv4g02169 = target: T1, Vv4g02169 (Vitis vinifera, UniProt D7SNV7); assay: MTase-Glo luminescence methyltransferase assay; type: biochemical; settings: 150 μM SAM, pH 8.0, 37 °C
T1 sequence (D7SNV7 1-364): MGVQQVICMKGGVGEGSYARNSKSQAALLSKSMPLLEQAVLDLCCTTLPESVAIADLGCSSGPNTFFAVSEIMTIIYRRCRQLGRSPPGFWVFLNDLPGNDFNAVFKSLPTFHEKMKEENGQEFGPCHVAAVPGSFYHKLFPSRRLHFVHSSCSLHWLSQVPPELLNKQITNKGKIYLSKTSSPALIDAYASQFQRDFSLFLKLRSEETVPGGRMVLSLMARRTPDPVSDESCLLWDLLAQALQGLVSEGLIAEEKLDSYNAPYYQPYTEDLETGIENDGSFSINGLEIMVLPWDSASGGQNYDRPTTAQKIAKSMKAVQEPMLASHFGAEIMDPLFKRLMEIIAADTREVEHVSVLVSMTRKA

Row | Structure (SMILES) | Km ([1]; substrate inhibition fit) | Km (Vv4g02123) | Km [1] | Km (Vv4g02169)
1 | O=C(O)c1ccccc1O [salicylic acid] | 3.8 µM |  |  | 
2 | CNc1ccccc1C(=O)O [N-methyl AA] |  | 12 µM | 120 µM | 
3 | O=C(O)c1ccccc1 [benzoic acid] |  |  | 23 µM | 
4 | Nc1ccccc1C(=O)O [anthranilate] |  |  | 47 µM | 160 µM
